The test system of assay [1] is Mus musculus. Description: Antinociceptive effect in Swiss mouse assessed as inhibition of acetic acid-induced visceral pain at 0.0001 to 30 mg/kg, ip relative to morphine. Type of assay: functional. The note with it: dose mg/kg 0.0001-30; route intraperitoneal.
Assay [2] concerns Mus musculus. Description: Antinociceptive effect in sc dosed Swiss mouse assessed as inhibition of acetic acid-induced visceral pain. Type of assay: functional. As to conditions: read-out: ID50 (the source's name).

A word on the Inhibition: it is the share of the control response that was lost under treatment. In the case of `CC(=O)Oc1ccccc1C(=O)O` [ASPIRIN], the Inhibition in assay [1] came out at 83%. In assay [2], the ED50 was 24 mg/kg.

Regarding `CN1CC[C@]23c4c5ccc(O)c4O[C@H]2[C@@H](O)C=C[C@H]3[C@H]1C5` [MORPHINE], the ED50 in assay [2] stood at 0.67 mg/kg.

Source of the values: ChEMBL document CHEMBL1143894, “Synthetic derivatives of the alpha- and beta-amyrin triterpenes and their antinociceptive properties” (2008).
